What was measured:
TDP-43 protein = target: T1, TDP-43 protein (Homo sapiens, UniProt Q13148); assay: TDP-43 aggregation inhibition in TDP-43-BiFC cell model (Forskolin-induced); format: cell-based; settings: for inhibition at 3 µM: read-out: TDP-43 protein aggregation inhibitory effect: Aggregation inhibitory effect (%) (@3 uM)
T1 construct: BiFC fluorescent-protein fragments (two complementary halves); expressed in transfected cells
Procedure: (§1) To screen for new TDP-43 aggregation inhibitors, a TDP-43-BiFC cell model that facilitates observation of TDP-43 aggregate formation in living cells was used. Specifically, TDP-43-BiFC cells were dispensed into a 384-well plate, and the next day, the compounds prepared according to Examples 1 to 46 were treated at concentrations of 3 and 10 µM, respectively, together with Forskolin (treatment concentration 30 µM), which is a compound that induces TDP-43 aggregation by activating the phosphorylation enzyme PKA. After 48 hours, nuclei within cells were stained using Hoechst (treatment concentration 1 µg/mL), and BiFC fluorescence intensity was automatically quantified using Operetta (PerkinElmer) to count the stained nuclei in each well from the entire plate. The group treated only with Forskolin, which induces TDP-43 aggregation, was set as the reference point with 100% TDP-43 aggregation state, and the effect was confirmed by the formula "(BiFC fluorescence intensity by the compounds synthesized according to the Examples of the disclosure - fluorescence intensity of the untreated control group)/(fluorescence intensity of the control group treated only with Forskolin that induces TDP-43 aggregation - fluorescence intensity of the untreated control group) × 100". In addition, the degree of cytotoxicity induced by the newly synthesized compounds was also calculated using the formula "(number of stained nuclei in the compound-treated group/number of stained nuclei in the Forskolin-treated group) × 100", with the group treated only with Forskolin as the reference point at 100% viability. From the treatment results, substances that inhibit intracellular TDP-43 aggregation were identified through screening from a series of candidates based on the criteria of 80% or more TDP-43 aggregation inhibition and 60% cell viability at a compound treatment concentration of 3 µM.
(§2) Furthermore, to confirm the TDP-43 aggregation inhibitory effect according to the concentration of the compounds screened in Experimental Example 3, the screened compounds were treated to […] at concentrations of 0.003, 0.01, 0.03, 0.1, 0.3, 1, 3, and 10 µM, respectively, together with Forskolin (treatment concentration 30 µM), which is a TDP-43 aggregation-inducing substance. After 48 hours, cell images were examined to analyze the TDP-43 aggregation reaction and degree of cytotoxicity. The IC50 and toxicity of the compounds were analyzed by nonlinear regression analysis using Prism software (GraphPad). The calculated results for representative compounds are shown in Table 4 below: TDP-43 protein aggregation inhibitory effect and cell viability of novel compounds.

CYP2C9 = target: T2, CYP2C9 (Homo sapiens, UniProt P11712); assay: CYP isoenzyme activity inhibition in human liver microsomes, CYP2C9; format: in vitro ADME; settings: 10 µM compound; human liver microsomes 0.25 mg/mL; relative to control without compound
T2 construct: human liver microsomes (0.25 mg/mL); from tissue; host or cells: human liver microsomes
T2 sequence (P11712 whole entry): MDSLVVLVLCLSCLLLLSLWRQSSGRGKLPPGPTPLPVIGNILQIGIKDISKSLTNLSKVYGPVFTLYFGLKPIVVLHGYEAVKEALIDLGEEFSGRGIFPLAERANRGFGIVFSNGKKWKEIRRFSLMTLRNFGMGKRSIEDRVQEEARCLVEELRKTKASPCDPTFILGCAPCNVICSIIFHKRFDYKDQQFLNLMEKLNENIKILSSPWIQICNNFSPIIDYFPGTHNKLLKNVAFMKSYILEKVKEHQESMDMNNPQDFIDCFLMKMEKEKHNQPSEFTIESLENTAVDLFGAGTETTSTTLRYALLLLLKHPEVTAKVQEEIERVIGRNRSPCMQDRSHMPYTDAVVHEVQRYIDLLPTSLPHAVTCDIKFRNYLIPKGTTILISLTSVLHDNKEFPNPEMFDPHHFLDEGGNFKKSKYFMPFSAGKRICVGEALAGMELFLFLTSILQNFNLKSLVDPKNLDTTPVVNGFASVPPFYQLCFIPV
Procedure: The CYP isoenzyme activity inhibitory effect by the compounds prepared according to Examples 1 to 46 was confirmed. Specifically, human liver microsomes (0.25 mg/mL), 0.1 M phosphate buffer solution (pH 7.4), a substrate drug cocktail of five drug metabolizing enzymes (Phenacetin 50 µM, Diclofenac 10 µM, S-mephenytoin 100 µM, Dextromethorphan 5 µM, and Midazolam 2.5 µM), and the compounds were added at concentrations of 0 or 10 µM, respectively, and pre-incubated at 37°C for 5 minutes, and then NADPH generation system solution was added and incubated at 37°C for an additional 15 minutes. Thereafter, an acetonitrile solution containing an internal standard (Terfenadine) was added to terminate the reaction, and after centrifugation for 5 minutes (14,000 rpm, 4°C), the supernatant was injected into an LC-MS/MS system to simultaneously analyze the metabolites of the substrate drugs, thereby evaluating the drug metabolizing enzyme inhibitory activity.
The metabolites of each CYP isoenzyme marker drug generated through the reaction were analyzed using a Shimadzu Nexera XR system and TSQ vantage (Thermo). A Kinetex C18 (2.1 × 100 mm, 2.6 µm, particle size; Phenomenex, USA) was used as the HPLC column, and (A) distilled water containing 0.1% formic acid and (B) acetonitrile containing 0.1% formic acid were used as mobile phases, and a gradient program as shown in Table 6 below was applied.
The generated metabolites were quantified using MRM (Multiple Reaction Monitoring) quantitative mode, and Xcalibur (version 1.6.1) was used for data analysis. To show the CYP isoenzyme activity inhibitory effect of the novel compounds prepared according to the Examples of the disclosure, the % activity of CYP isoenzymes relative to the control group without compound addition is shown in Table 6 below. Additionally, to confirm the difference in effect according to substituents, Comparative Compounds 1 and 5, which are two compounds that share a similar parent nucleus structure with Compounds 1 to 46 of the disclosure while Cy is substituted with aromatic heteroaryl instead of saturated heterocyclyl, were selected as comparative compounds and their activities are shown together.

[1] = Liver microsomal stability, human; format: in vitro ADME; settings: 1 µM compound; 0.5 mg/mL microsomes; NADPH; 30 minutes at 37°C
Procedure: Liver microsomal stability by the compounds prepared according to Examples 1 to 46 was confirmed. Specifically, four types of liver microsomes (human, dog, rat, and mouse each at 0.5 mg/mL), 0.1 M phosphate buffer solution (pH 7.4), and the compounds at 1 µM concentration were added and pre-incubated at 37°C for 5 minutes, and then NADPH generation system solution was added and incubated at 37°C for an additional 30 minutes. Thereafter, an acetonitrile solution containing an internal standard (chloropropamide) was added to terminate the reaction, and after centrifugation for 5 minutes (14,000 rpm, 4°C), the supernatant was injected into an LC-MS/MS system to analyze the substrate drug, thereby evaluating the metabolic stability of 8 compounds.
The amount of remaining substrate through the reaction was analyzed using a Shimadzu Nexera XR system and TSQ vantage (Thermo). A Kinetex XB-C18 (2.1 × 100 mm, 2.6 µm, particle size; Phenomenex, USA) was used as the HPLC column, and (A) distilled water containing 0.1% formic acid and (B) acetonitrile containing 0.1% formic acid were used as mobile phases. Analyst software (version 1.6.3) and Xcalibur (version 1.6.1) were used for data analysis. The calculated results are shown in Table 5 below: Liver microsomal stability data of novel compounds from […] (human, rat, and mouse).

TDP-43 BiFC cells = assay: Cell viability (stained nuclei count) in TDP-43-BiFC cells; format: cell-based; settings: Forskolin-only group = 100%
Procedure: as §1, §2

T1 sequence (Q13148 whole entry, the tested form may be a part): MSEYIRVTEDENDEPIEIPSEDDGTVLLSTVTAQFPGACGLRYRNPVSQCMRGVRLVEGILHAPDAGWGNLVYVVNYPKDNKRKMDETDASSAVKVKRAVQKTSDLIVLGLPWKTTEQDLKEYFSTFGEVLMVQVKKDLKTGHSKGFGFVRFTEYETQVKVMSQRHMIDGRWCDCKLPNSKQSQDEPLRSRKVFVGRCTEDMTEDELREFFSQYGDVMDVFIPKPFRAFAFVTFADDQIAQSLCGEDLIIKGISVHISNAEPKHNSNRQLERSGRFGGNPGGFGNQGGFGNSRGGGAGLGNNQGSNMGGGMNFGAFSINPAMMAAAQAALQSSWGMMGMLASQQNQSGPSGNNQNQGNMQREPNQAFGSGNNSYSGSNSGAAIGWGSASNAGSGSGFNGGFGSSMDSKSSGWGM

Row | SMILES | inhibition at 3 µM (TDP-43 protein) [%] | CYP2C9 (% activity) (CYP2C9) | Human microsomes (% remaining) [1] [% remaining] | Cell viability (%) (@ 3 uM) (TDP-43 BiFC cells) | IC50 (TDP-43 protein) [nM]
1 | N#CC(C#N)=NNc1ccc2oc(N3CCOCC3)nc2c1 [Compound 3, (2-morpholinobenzo[d]oxazol-5-yl)carbonohydrazonoyl dicyanide] | 79.6 | > 100 | 99.4 | 102.3 | 
2 | N#CC(C#N)=NNc1ccc2nc(N3CCOCC3)oc2c1 [Compound 4, (2-morpholinobenzo[d]oxazol-6-yl)carbonohydrazonoyl dicyanide] | 100 | 93.2 | 93.5 | 104.2 | 
3 | CC1COCCN1c1nc2ccc(NN=C(C#N)C#N)cc2o1 (stereo not drawn) [Compound 16, (2-(3-methylmorpholino)benzo[d]oxazol-6-yl)carbonohydrazonoyl dicyanide] | 100 | 87 | 79.8 | 97.8 | 
4 | CC1COCCN1c1nc2ccc(NN=C(C#N)C#N)cc2s1 (stereo not drawn) [Compound 13, (2-(3-methylmorpholino)benzo[d]thiazol-6-yl)carbonohydrazonoyl dicyanide] | 100 | 75 | 79.9 | 63.6 | 
5 | N#CC(C#N)=NNc1ccc2nc(N3C4CCC3COC4)oc2c1 [Compound 20, (2-(3-oxa-8-azabicyclo[3.2.1]octan-8-yl)benzo[d]oxazol-6-yl)carbonohydrazonoyl dicyanide] | 91.7 | 48 | > 100 | 75.4 | 140
6 | Cn1c(N2C3CCC2COC3)nc2ccc(NN=C(C#N)C#N)cc21 [Compound 34, (2-(3-oxa-8-azabicyclo[3.2.1]octan-8-yl)-1-methyl-1H-benzo[d]imidazol-6-yl)carbonohydrazonoyl dicyanide] | 82.4 | 80.8 | 88.9 | 59.5 | 10
7 | Cn1c(N2C3CCC2COC3)nc2cc(NN=C(C#N)C#N)ccc21 [Compound 35, (2-(3-oxa-8-azabicyclo[3.2.1]octan-8-yl)-1-methyl-1H-benzo[d]imidazol-5-yl)carbonohydrazonoyl dicyanide] | 62.9 | 84.3 | 94.3 | 67.4 | 192
8 | Cn1c(N2CCOCC2)nc2cc(NN=C(C#N)C#N)ccc21 [Compound 6, (1-methyl-2-morpholino-1H-benzo[d]imidazol-5-yl)carbonohydrazonoyl dicyanide] | 97.4 | > 100 | 90 | 98.1 | 
9 | N#CC(C#N)=NNc1ccc2sc(N3CCOCC3)nc2c1 [Compound 1, (2-morpholinobenzo[d]thiazol-5-yl)carbonohydrazonoyl dicyanide] | 78.1 | 82.5 | 91.2 | 87.5 | 
10 | N#CC(C#N)=NNc1ccc2nc(N3CC[C@@H](F)C3)oc2c1 [Compound 41, (R)-(2-(3-fluoropyrrolidin-1-yl)benzo[d]oxazol-6-yl)carbonohydrazonoyl dicyanide] | 87.8 | 51.2 | 70.0 | 71.5 | 
11 | CC(=O)N1CCN(c2nc3ccc(NN=C(C#N)C#N)cc3o2)CC1 [Compound 31, (2-(4-acetylpiperazin-1-yl)benzo[d]oxazol-6-yl)carbonohydrazonoyl dicyanide] | 41.4 | 88.8 | 99.9 | 82.7 | 
12 | N#CC(C#N)=NNc1ccc2nc(NC(=O)N3CCOCC3)sc2c1 [Compound 38, (2-(morpholine-4-carboxamido)benzo[d]thiazol-6-yl)carbonohydrazonoyl dicyanide] | 49.6 | 73.6 | 87.6 | 111.9 | 
13 | CC(C)N1CCN(c2nc3ccc(NN=C(C#N)C#N)cc3s2)CC1 [Compound 27, (2-(4-isopropylpiperazin-1-yl)benzo[d]thiazol-6-yl)carbonohydrazonoyl dicyanide] | 48.2 | 58.5 |  | 104.8 | 
14 | CN1CCN(c2nc3ccc(NN=C(C#N)C#N)cc3s2)CC1 [Compound 8, (2-(4-methylpiperazin-1-yl)benzo[d]thiazol-6-yl)carbonohydrazonoyl dicyanide] | 100 | > 100 | 83.9 | 83.0 | 
15 | CN1CCN(c2nc3ccc(NN=C(C#N)C#N)cc3o2)CC1 [Compound 14, (2-(4-methylpiperazin-1-yl)benzo[d]oxazol-6-yl)carbonohydrazonoyl dicyanide] | 100 | 88 |  | 101.4 | 
16 | N#CC(C#N)=NNc1ccc2nc(N3CCNCC3)oc2c1 [Compound 25, (2-(piperazin-1-yl)benzo[d]oxazol-6-yl)carbonohydrazonoyl dicyanide] | 98.2 | 93.5 |  | 76.7 | 53
17 | N#CC(C#N)=NNc1ccc2nc(N3CCNCC3)sc2c1 [Compound 24, (2-(piperazin-1-yl)benzo[d]thiazol-6-yl)carbonohydrazonoyl dicyanide] | 97.9 | 72.0 |  | 83.1 | 53

— patent EP4737445A1, “NOVEL SATURATED HETEROCYCLE-SUBSTITUTED HETEROARYL-CARBONOHYDRAZONOYL DICYANIDE COMPOUND AND USE THEREOF” (Korea Institute of Science and Technology, priority 2023, dated 2025)
